Results as given in publication PMC8159961, “Exploring protein hotspots by optimized fragment pharmacophores” (Nature Communications, 2021).
Values joined by “and” are separate entries in the source; they are usually repeats but may differ in a detail not shown here. Equal entries are not always repeated. Where two headings read alike, the source gives them in different places.

Columns and labels:
human 5-HT6 receptor = molecular target: T1, human 5-HT6 receptor (Homo sapiens, UniProt P50406); test: GPCR radioligand binding assay, [3H]-LSD displacement, HEK293 membranes
T1 construct: expressed in transfected cells
T1 sequence (P50406 whole entry): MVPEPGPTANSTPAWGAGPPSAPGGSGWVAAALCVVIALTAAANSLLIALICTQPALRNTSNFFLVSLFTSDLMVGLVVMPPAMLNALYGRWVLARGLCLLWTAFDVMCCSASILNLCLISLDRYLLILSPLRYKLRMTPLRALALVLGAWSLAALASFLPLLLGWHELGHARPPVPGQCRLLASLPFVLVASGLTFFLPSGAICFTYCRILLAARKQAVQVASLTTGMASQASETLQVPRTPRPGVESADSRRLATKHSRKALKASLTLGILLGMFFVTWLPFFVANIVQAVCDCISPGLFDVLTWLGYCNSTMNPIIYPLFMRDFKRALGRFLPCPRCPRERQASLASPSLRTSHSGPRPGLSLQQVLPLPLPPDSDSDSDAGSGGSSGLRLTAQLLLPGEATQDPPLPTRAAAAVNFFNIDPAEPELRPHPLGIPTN

bovine factor Xa = molecular target: T2, bovine factor Xa (Bos taurus, UniProt P00743); test: Protease inhibitory assay, chromogenic substrate S-2222; type: biochemical; conditions: 1 = hit, 0 = no hit; screening at 200 µM
T2 construct: bovine factor Xa, Chromogenix, 2 nkat/mL; purchased Chromogenix
T2 sequence (P00743 234-492 limits assumed): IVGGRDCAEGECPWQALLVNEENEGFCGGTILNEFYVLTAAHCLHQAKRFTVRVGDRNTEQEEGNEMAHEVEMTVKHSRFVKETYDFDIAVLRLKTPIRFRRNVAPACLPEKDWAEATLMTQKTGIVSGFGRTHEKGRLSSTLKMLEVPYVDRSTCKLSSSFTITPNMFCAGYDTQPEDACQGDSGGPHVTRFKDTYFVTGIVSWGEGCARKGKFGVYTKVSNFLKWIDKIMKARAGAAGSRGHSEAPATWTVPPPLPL
T2 sequence (P00743 41-180 partner limits assumed): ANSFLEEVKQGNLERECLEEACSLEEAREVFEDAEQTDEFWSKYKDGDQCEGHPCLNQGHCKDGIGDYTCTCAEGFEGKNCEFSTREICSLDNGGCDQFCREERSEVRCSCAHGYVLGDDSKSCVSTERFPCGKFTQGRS

human 5-HT1A receptor = molecular target: T3, human 5-HT1A receptor (Homo sapiens, UniProt P08908); test: GPCR radioligand binding assay, [3H]-8-OH-DPAT displacement, HEK293 membranes
T3 construct: expressed in transfected cells
T3 sequence (P08908 1-422): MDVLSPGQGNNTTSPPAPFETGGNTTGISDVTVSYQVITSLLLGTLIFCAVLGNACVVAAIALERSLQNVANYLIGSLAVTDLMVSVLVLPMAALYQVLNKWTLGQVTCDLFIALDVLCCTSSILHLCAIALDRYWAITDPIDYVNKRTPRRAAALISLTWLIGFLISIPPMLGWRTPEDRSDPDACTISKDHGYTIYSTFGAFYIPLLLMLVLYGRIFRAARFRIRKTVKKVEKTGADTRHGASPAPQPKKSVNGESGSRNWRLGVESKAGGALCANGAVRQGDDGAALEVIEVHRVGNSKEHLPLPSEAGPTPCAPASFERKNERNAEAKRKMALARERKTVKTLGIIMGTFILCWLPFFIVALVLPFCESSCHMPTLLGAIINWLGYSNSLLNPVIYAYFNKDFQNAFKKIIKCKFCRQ

human 5-HT7b receptor = molecular target: T4, human 5-HT7b receptor (Homo sapiens, UniProt P34969); test: GPCR radioligand binding assay, [3H]-5-CT displacement, HEK293 membranes
T4 construct: expressed in transfected cells
T4 sequence (P34969 1-432): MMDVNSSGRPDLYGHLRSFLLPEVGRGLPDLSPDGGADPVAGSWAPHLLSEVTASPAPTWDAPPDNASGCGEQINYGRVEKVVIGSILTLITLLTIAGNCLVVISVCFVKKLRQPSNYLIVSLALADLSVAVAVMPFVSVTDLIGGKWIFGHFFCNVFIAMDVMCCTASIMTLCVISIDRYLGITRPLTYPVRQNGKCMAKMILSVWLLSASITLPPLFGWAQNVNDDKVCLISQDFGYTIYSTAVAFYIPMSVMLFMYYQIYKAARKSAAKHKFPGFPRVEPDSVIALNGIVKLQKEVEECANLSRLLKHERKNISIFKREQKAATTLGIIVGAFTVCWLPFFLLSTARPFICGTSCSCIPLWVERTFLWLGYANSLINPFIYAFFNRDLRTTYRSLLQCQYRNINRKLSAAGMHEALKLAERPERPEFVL

recombinant SETD2 = molecular target: T5, recombinant SETD2 (Homo sapiens, UniProt Q9BYW2); test: SETD2 Chemiluminescence assay (H3K36 tri-methylation); type: biochemical; conditions: for SETD2 signal normalised to positive control and internally to compound: nM], replicates
T5 construct: purchased BPS Bioscience 52060
T5 sequence (Q9BYW2 1418-1714 limits assumed): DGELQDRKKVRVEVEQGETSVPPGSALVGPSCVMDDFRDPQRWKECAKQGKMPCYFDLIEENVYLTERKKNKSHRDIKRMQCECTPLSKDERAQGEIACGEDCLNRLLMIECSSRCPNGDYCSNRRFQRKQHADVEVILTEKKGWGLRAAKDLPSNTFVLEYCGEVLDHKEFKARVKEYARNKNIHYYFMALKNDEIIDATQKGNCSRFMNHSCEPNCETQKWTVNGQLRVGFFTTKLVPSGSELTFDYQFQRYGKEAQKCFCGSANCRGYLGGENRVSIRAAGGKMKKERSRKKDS

human thrombin = molecular target: T6, human thrombin (Homo sapiens, UniProt P00734); test: Protease inhibitory assay, chromogenic substrate S-2238; type: biochemical
T6 construct: human thrombin; purchased Sigma-Aldrich

MV4-11 leukemia cells = test: Cell viability assay, CellTiter-Glo, 5 days; conditions: for normalized viability (0 = 0 % viability, 1 = 100 % viability): MV4-11, nM], replicates
MOLM-13 leukemia cells = test: Cell viability assay, CellTiter-Glo, 5 days; conditions: for normalized viability (0 = 0 % viability, 1 = 100 % viability): MOLM-13, nM], replicates
[1] = 1 = hit, 0 = no hit, tested at 10 µM, hit = 50% or stronger inhibition

## c1ccc2[nH]ccc2c1 [SX004]
Human 5-HT6 receptor; [1]
  experimental hit status, 5-HT6: 0
Human 5-HT6 receptor; read-out: 5-HT6 % Inhibition by plate position
  inhibition at 10 µM: 16%
Human 5-HT6 receptor; read-out: %inh 5-HT6 average
  inhibition at 10 µM: 16%
Human 5-HT6 receptor; read-out: %inh 5-HT6 corrected*
  inhibition at 10 µM: 16%
Human 5-HT6 receptor; read-out: %inh 5-HT6 exp_1
  inhibition at 10 µM: 16%
Human 5-HT6 receptor; read-out: %inh 5-HT6 exp_2
  inhibition at 10 µM: 16%
Bovine factor Xa
  experimental hit status, Factor Xa: 0
Human 5-HT1A receptor; [1]
  experimental hit status, 5-HT1: 0
Human 5-HT1A receptor; read-out: 5-HT1A % Inhibition by plate position
  inhibition at 10 µM: 0%
Human 5-HT1A receptor; read-out: %inh 5-HT1A average
  inhibition at 10 µM: -11%
Human 5-HT1A receptor; read-out: %inh 5-HT1A corrected*
  inhibition at 10 µM: 0%
Human 5-HT1A receptor; read-out: %inh 5-HT1A exp_1
  inhibition at 10 µM: -0.425%
Human 5-HT1A receptor; read-out: %inh 5-HT1A exp_2
  inhibition at 10 µM: -21%
Human 5-HT7b receptor; [1]
  experimental hit status, 5-HT7: 0
Human 5-HT7b receptor; read-out: 5-HT7 % Inhibition by plate position
  inhibition at 10 µM: 0%
Human 5-HT7b receptor; read-out: %inh 5-HT7 average
  inhibition at 10 µM: -2.64%
Human 5-HT7b receptor; read-out: %inh 5-HT7 corrected*
  inhibition at 10 µM: 0%
Human 5-HT7b receptor; read-out: %inh 5-HT7 exp_1
  inhibition at 10 µM: 19%
Human 5-HT7b receptor; read-out: %inh 5-HT7 exp_2
  inhibition at 10 µM: -24%
Recombinant SETD2; 1 = hit, 0 = no hit
  experimental hit status, SETD2: 0
Human thrombin; 1 = hit, 0 = no hit, screening at 200 µM
  experimental hit status, Thrombin: 0

## CC1CCc2sc(C(=O)O)cc2C1 (stereo not drawn) [SX045]
Human 5-HT6 receptor; 10 µM, read-out: 5-HT6 % Inhibition by plate position
  inhibition at 10 µM: 45%
Human 5-HT6 receptor; 5-HT6, average of exp_1 and exp_2, read-out: %inh 5-HT6 average
  inhibition at 10 µM: 45%
Human 5-HT6 receptor; 5-HT6, average, values below 0 and above 100% were set as 0 and 100, read-out: %inh 5-HT6 corrected*
  inhibition at 10 µM: 45%
Human 5-HT6 receptor; 5-HT6, replicate exp_1, read-out: %inh 5-HT6 exp_1
  inhibition at 10 µM: 52%
Human 5-HT6 receptor; 5-HT6, replicate exp_2, read-out: %inh 5-HT6 exp_2
  inhibition at 10 µM: 38%
MV4-11 leukemia cells; concentration 2.18 [log
  normalized viability (0 = 0 % viability, 1 = 100 % viability): 0.9962 and 1.163 and 0.9666
MV4-11 leukemia cells; concentration 2.66 [log
  normalized viability (0 = 0 % viability, 1 = 100 % viability): 0.9943 and 0.9504 and 0.9572
MV4-11 leukemia cells; concentration 3.14 [log
  normalized viability (0 = 0 % viability, 1 = 100 % viability): 0.9413 and 0.941 and 0.9817
MV4-11 leukemia cells; concentration 3.61 [log
  normalized viability (0 = 0 % viability, 1 = 100 % viability): 0.7873 and 0.9285 and 0.9554
MV4-11 leukemia cells; concentration 4.09 [log
  normalized viability (0 = 0 % viability, 1 = 100 % viability): 0.7566 and 0.9251 and 0.9854
MV4-11 leukemia cells; concentration 4.57 [log
  normalized viability (0 = 0 % viability, 1 = 100 % viability): 0.732 and 0.9248 and 0.8741
MV4-11 leukemia cells; concentration 5.05 [log
  normalized viability (0 = 0 % viability, 1 = 100 % viability): 0.7081 and 0.7223 and 0.7408
MV4-11 leukemia cells; concentration 5.52 [log
  normalized viability (0 = 0 % viability, 1 = 100 % viability): 0.4531 and 0.4099 and 0.4328
MV4-11 leukemia cells; concentration 6 [log
  normalized viability (0 = 0 % viability, 1 = 100 % viability): 0.0008148 and 0.0004041 and 0.01018
MV4-11 leukemia cells; MV4-11 cells, 5 days after treatment
  IC50 cell viability / anti-proliferative EC50: 400 µM
MOLM-13 leukemia cells; concentration 2.18 [log
  normalized viability (0 = 0 % viability, 1 = 100 % viability): 1.039 and 0.9762 and 0.9421
MOLM-13 leukemia cells; concentration 2.66 [log
  normalized viability (0 = 0 % viability, 1 = 100 % viability): 1.004 and 0.9844 and 0.9162
MOLM-13 leukemia cells; concentration 3.14 [log
  normalized viability (0 = 0 % viability, 1 = 100 % viability): 0.9835 and 0.9812 and 0.9002
MOLM-13 leukemia cells; concentration 3.61 [log
  normalized viability (0 = 0 % viability, 1 = 100 % viability): 0.9836 and 0.9626 and 0.8884
MOLM-13 leukemia cells; concentration 4.09 [log
  normalized viability (0 = 0 % viability, 1 = 100 % viability): 0.9563 and 0.9463 and 0.9164
MOLM-13 leukemia cells; concentration 4.57 [log
  normalized viability (0 = 0 % viability, 1 = 100 % viability): 0.8812 and 0.9087 and 0.8366
MOLM-13 leukemia cells; concentration 5.05 [log
  normalized viability (0 = 0 % viability, 1 = 100 % viability): 0.7992 and 0.5481 and 0.7667
MOLM-13 leukemia cells; concentration 5.52 [log
  normalized viability (0 = 0 % viability, 1 = 100 % viability): 0.5003 and 0.4827 and 0.2594
MOLM-13 leukemia cells; concentration 6 [log
  normalized viability (0 = 0 % viability, 1 = 100 % viability): 0.05284 and 0.001062 and 0.1076
MOLM-13 leukemia cells; MOLM-13 cells, 5 days after treatment
  IC50 cell viability / anti-proliferative EC50: 333 µM
Human 5-HT1A receptor; 10 µM, read-out: 5-HT1A % Inhibition by plate position
  inhibition at 10 µM: 0%
Human 5-HT1A receptor; 5-HT1A, average of exp_1 and exp_2, read-out: %inh 5-HT1A average
  inhibition at 10 µM: -1%
Human 5-HT1A receptor; 5-HT1A, average, values below 0 and above 100% were set as 0 and 100, read-out: %inh 5-HT1A corrected*
  inhibition at 10 µM: 0%
Human 5-HT1A receptor; 5-HT1A, replicate exp_1, read-out: %inh 5-HT1A exp_1
  inhibition at 10 µM: -0.0944%
Human 5-HT1A receptor; 5-HT1A, replicate exp_2, read-out: %inh 5-HT1A exp_2
  inhibition at 10 µM: -2%
Human 5-HT7b receptor; 10 µM, read-out: 5-HT7 % Inhibition by plate position
  inhibition at 10 µM: 4.44%
Human 5-HT7b receptor; 5-HT7, average of exp_1 and exp_2, read-out: %inh 5-HT7 average
  inhibition at 10 µM: 4.44%
Human 5-HT7b receptor; 5-HT7, average, values below 0 and above 100% were set as 0 and 100, read-out: %inh 5-HT7 corrected*
  inhibition at 10 µM: 4.44%
Human 5-HT7b receptor; 5-HT7, replicate exp_1, read-out: %inh 5-HT7 exp_1
  inhibition at 10 µM: -4.73%
Human 5-HT7b receptor; 5-HT7, replicate exp_2, read-out: %inh 5-HT7 exp_2
  inhibition at 10 µM: 14%
Recombinant SETD2; chemiluminescence-based enzymatic assay
  IC50: 300 µM
Recombinant SETD2; fragment concentration 4.4 [log
  SETD2 signal normalised to positive control and internally to compound: 0.78 and 0.88
Recombinant SETD2; fragment concentration 5 [log
  SETD2 signal normalised to positive control and internally to compound: 0.71 and 0.90
Recombinant SETD2; fragment concentration 5.3 [log
  SETD2 signal normalised to positive control and internally to compound: 0.89 and 0.66
Recombinant SETD2; fragment concentration 5.6 [log
  SETD2 signal normalised to positive control and internally to compound: 0.20 and 0.33
Recombinant SETD2; fragment concentration 5.9 [log
  SETD2 signal normalised to positive control and internally to compound: 0.05 and 0.21
Human thrombin; plate layout, label = plate position, Cheng-Prusoff, Km 2.6 µM, read-out: Thrombin Ki
  Ki: 65 µM
